Experimental data published in US20230406840A1, “N-(2-(3-CYANO-2-AZABICYCLO[3.1.0]HEXAN-2-YL)-2-OXOETHYL)QUINOLINE-4-CARBOXAMIDES” (AstraZeneca AB, priority 2022, published 2023).
≈ marks a conversion by molar mass, not a printed value.

Columns and labels:
[1] = target: Prolyl Oligopeptidase (hPREP) (Homo sapiens (Human), UniProt P48147); assay: hPREP inhibition assay; type: biochemical; settings: hPREP 0.6 nM, Z-Gly-Pro-amino-methylcoumarin 50 μM; read-out: PREP IC50
How it was run: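 Recombinant human PREP at 0.6 nM final, with Z-Gly-Pro-AMC substrate at 50 μM final. Buffer: 25 mM Tris HCl pH 7.5, 250 mM NaCl, 0.01% Triton X-100, 5 mM glutathione. Incubated 20 min at rt in the dark; fluorogenic AMC release read.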

FAP Human Plasma = FAP Human Plasma (Homo sapiens (Human), UniProt Q12884); assay: FAP plasma inhibition assay, human plasma; type: biochemical; settings: human plasma dilution 1:40, Ala-Pro-AMC 75 μM; n = 1
Chain of FAP Human Plasma (Q12884 24-760 limits assumed): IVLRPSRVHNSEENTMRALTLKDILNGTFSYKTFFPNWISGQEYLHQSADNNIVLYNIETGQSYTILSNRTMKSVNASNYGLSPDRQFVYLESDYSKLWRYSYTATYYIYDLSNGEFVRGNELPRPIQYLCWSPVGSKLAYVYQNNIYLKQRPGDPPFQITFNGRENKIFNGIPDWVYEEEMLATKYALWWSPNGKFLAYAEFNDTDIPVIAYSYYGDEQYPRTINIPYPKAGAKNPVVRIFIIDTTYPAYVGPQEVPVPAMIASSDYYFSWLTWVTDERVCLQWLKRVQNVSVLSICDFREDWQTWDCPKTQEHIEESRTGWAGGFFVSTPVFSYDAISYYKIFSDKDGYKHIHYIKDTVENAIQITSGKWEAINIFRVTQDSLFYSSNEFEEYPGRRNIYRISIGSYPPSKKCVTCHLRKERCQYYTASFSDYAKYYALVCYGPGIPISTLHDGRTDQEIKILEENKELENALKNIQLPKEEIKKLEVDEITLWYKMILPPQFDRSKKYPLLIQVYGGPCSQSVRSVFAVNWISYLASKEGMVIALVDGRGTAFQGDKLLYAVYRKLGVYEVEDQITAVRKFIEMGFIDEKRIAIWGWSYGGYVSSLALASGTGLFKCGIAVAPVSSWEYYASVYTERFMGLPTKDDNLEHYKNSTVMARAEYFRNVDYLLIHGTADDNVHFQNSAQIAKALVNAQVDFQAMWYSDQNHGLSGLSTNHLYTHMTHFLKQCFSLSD
Procedure: This assay was adapted from the method described in Example 53 for detection of FAP target engagement enzyme activity in plasma. Plasma (anticoagulant K2EDTA) was used as the enzyme source: Human plasma (Pooled from AZ Biobank) and Mouse plasma (AZ AST Biobank). 384-Well black fluotrack PS plates (Greiner 781076) were used. 20 μL diluted plasma (Human plasma dilution 1:40, Mouse plasma dilution 1:67) in buffer (PBS, 0.1% BSA) was added to 0.6 μL compounds (in DMSO). Compounds were tested using 10 CR, 3-fold dilution series from 500 nM FAC. Two replicates for each assay point were run on the same plate. A fluorescence blank read was taken before substrate addition. Substrate, Ala-Pro-AMC (ARI-3144) stock solution (20 mM in DMSO) was diluted in buffer (PBS, 0.1% BSA) to 150 μM concentration and 20 μL added giving 75 μM FAC. Plates were incubated for 40 min at rt in the dark. The plates were read on a Beckman Paradigm® reader with excitation 360 nm and emission 465 nm. Data were analyzed in Excel (IDBS XLfit Add-In) using a one site dose response model (4-parameter logistic fit). […] Raw data signals were normalized using 1.5% DMSO in diluted plasma as 0% control and 1.5% DMSO in buffer (no plasma) as 100% inhibitor control.

[2] = target: FAP enzyme activity in mouse plasma (Mus musculus (Mouse), UniProt P97321); assay: FAP target engagement enzyme activity in mouse plasma after oral dosing; settings: male C57Bl/6 mice, single oral dose 3 or 10 mg/kg; estimated from plasma exposure vs FAP activity, Imax fixed to 1; read-out: In vivo Mouse IC50
Chain of FAP enzyme activity in mouse plasma (P97321 24-761 limits assumed): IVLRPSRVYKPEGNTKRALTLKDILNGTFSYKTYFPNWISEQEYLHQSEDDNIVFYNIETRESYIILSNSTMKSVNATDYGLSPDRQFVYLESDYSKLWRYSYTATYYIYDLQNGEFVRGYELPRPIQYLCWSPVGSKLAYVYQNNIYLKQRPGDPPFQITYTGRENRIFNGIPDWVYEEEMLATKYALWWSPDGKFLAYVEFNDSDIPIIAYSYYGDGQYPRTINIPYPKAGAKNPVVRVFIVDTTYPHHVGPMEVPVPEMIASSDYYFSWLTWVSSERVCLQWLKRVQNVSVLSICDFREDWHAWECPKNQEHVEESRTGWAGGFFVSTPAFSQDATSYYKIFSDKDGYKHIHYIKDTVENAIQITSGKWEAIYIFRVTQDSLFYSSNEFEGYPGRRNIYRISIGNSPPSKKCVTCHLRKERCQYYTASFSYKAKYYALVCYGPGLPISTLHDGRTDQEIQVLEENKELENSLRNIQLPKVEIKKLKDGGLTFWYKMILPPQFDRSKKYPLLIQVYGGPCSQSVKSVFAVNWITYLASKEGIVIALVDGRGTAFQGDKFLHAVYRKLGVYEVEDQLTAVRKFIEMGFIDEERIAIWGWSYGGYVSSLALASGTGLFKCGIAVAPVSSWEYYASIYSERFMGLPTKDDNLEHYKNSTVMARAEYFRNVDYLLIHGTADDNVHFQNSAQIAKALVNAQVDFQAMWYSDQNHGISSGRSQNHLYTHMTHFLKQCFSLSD
Procedure: The effect of test compound on FAP enzyme activity in mouse plasma was evaluated in an enzymatic assay using the Fibroblast Activation Protein alpha (FAP) specific fluorogenic substrate dipeptide-Coumarin, Ala-Pro-AMC, (ARI-3144). In this assay, FAP cleaves Ala-Pro-AMC to release free AMC which is measured as a fluorescent signal that correlates with enzyme activity.
Male C57Bl/6 mice (Charles River, Germany), 8 weeks of age, were single housed in a temperature-controlled room with a 12-hour light/dark cycle (06:00-18:00 light). The mice had ad libitum access to water and rodent chow diet (R70, Lactamin, Kimstad, Sweden), and were acclimated for 5 days upon arrival. After acclimation, all mice received a single oral dose of test compound (3 or 10 mg/kg). Blood samples for whole blood compound exposure measurements were taken at 0.25, 0.5, 1, 2, 4, 8 and 24 h post oral dosing. Samples were collected in EDTA capillary tubes (20 μL, K2E, REF 19.447) and were transferred to a 96-deep well plate (NUNC, Thermo Discher Scientific) and stored at −20° C. until further analyses were performed. […]
Recombinant human FAP (PB-17-1837, construct PL-17-0278, cd33-FAP (27-757)-6His, Mw85926 Da) was used as a standard for this assay. […] The plates were read on a Beckman Paradigm reader with excitation 360 nm and emission 465 nm. Fluorescence measurements were performed with kinetic read every 5 minutes for 60 min at room temperature. Data were analyzed in Excel (IDBS XLfit Add-In) using a Linear Regression (y=k*x+m) model to prepare a human recombinant FAP standard curve.
On the day of the assay, plasma was diluted (1:2) to 20 μL volume in buffer (PBS, 0.1% BSA) and 7.5 μL was transferred to the assay plate (384-well black, fluotrack PS, Greiner 781076). […] The plates were read on a Beckman Paradigm reader with excitation 360 nm and emission 465 nm. Fluorescence measurements were performed with kinetic read every 5 minutes for 60 minutes at room temperature. As noted above, FAP cleaves Ala-Pro-AMC to release free AMC which is measured as a fluorescent signal. […]

Rat Hepatocytes (rHep) = assay: Metabolic stability in rat hepatocytes (rHep); type: in vitro ADME
Procedure: Metabolic stability in rat hepatocytes was measured as described in J Comput Aided Mol Des 2015, 29, 795.

[3] = Metabolic stability in human liver microsomes (HLM); type: in vitro ADME
Procedure: Metabolic stability in HLM was measured as described in J Comput Aided Mol Des 2015, 29, 795.

Kinetic solubility = type: physicochemical; settings: kinetic from dmso stock
Procedure: Kinetic solubility was measured as described in Comput Aided Mol Des 2015, 29, 795.

Chain of Prolyl Oligopeptidase (hPREP) (P48147 whole entry): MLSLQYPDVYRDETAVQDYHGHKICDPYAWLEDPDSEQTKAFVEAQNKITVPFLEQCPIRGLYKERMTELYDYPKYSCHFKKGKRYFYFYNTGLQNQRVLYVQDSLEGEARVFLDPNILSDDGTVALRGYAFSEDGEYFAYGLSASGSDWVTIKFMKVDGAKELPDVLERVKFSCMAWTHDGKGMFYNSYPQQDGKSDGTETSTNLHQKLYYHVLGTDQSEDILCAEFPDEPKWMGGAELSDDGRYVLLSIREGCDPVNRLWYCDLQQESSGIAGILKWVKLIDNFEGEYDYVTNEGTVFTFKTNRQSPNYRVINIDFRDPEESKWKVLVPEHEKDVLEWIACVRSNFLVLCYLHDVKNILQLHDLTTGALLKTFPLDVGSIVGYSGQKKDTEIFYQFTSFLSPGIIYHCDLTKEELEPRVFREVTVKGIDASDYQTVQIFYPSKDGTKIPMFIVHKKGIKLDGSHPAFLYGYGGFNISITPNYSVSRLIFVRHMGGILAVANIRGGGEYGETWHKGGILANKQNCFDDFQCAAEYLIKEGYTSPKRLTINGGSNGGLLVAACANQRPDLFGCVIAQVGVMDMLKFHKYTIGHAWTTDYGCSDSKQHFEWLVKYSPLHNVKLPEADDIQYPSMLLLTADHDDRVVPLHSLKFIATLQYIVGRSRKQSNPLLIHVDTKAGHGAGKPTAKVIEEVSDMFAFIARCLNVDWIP

An IC50 [1] of 31000 nM, an IC50 (FAP Human Plasma) of 1.6 nM and an IC50 [2] of 3 nM were found for `Cc1ccc2c(C(=O)NCC(=O)N3[C@H](C#N)C[C@@H]4C[C@@H]43)ccnc2c1` [Example 20, N-(2-((1S,3S,5S)-3-Cyano-2-azabicyclo[3.1.0]hexan-2-yl)-2-oxoethyl)-7-methylquinoline-4-carboxamide] in this work. The “rHeps CLint” value (Rat Hepatocytes (rHep)) was under 2 μL/min/1E6, the microsomal CLint [3] was under 3.2 µL/min/mg and the solubility (Kinetic solubility) was over 1000 µM.

An IC50 [1] of over 50000 nM, an IC50 (FAP Human Plasma) of 4.1 nM and an IC50 [2] of 36 nM were found for `N#C[C@@H]1C[C@@H]2C[C@@H]2N1C(=O)CNC(=O)c1ccnc2cc(C3(C#N)CC3)ccc12` [Example 40, N-(2-((1S,3S,5S)-3-Cyano-2-azabicyclo[3.1.0]hexan-2-yl)-2-oxoethyl)-7-(1-cyanocyclopropyl)quinoline-4-carboxamide] in this work. The “rHeps CLint” value (Rat Hepatocytes (rHep)) was 2.6 μL/min/1E6, the microsomal CLint [3] was under 3 µL/min/mg and the solubility (Kinetic solubility) was 570 µM (≈ 220 µg/mL).
